# Source: patent publication US6699676B1, “Uses of ouabain and ouabain-like molecules in apoptosis related pathologies” (Corporation du Centre de Recherche du Centre, Hospitalier …, priority 1999, dated 2004)
# What was measured:
# [1] = system: VSMC-E1A; assay: Chromatin cleavage assay in VSMC-E1A; type: cell-based, rat; conditions: VSMC-E1A; for Increment of chromatin fragments triggered by serum withdrawal(%): 1 mM, pretreated 2 hours then 3 hours with or without calf serum, control increment taken as 100%
# Experimental: FIG. 2. Effect of ouabain on chromatin cleavage in VSMC-E1A. (A) Kinetics of the accumulation of chromatin fragments in control (curves 1, 3) and ouabain-treated (curves 2, 4) VSMC-E1A in the presence of 10% calf serum (CS, curves 1, 2) or in CS-free medium (curves 3, 4). Mean values ±S.E. obtained in experiments performed in quadruplicate are given. (B) Content of chromatin fragments in VSMC-E1A subjected to 6 hr of incubation in serum-supplied medium with or without 1 mM ouabain, 0.25 μM staurosporine, 1 μM okadaic acid and 350 mM mannitol. Mean values±S.E. obtained in 3 experiments performed in quadruplicate are given. ★, ★★ p<0.05 and 0.001 compared to ouabain-untreated cells. In both experiments, ouabain was added 1 hour before triggering of apoptosis.
# Cells were incubated in K^+-containing medium consisting of 91 mM NaCl, 5 mM KCl, 0.9 mM NaH2PO4, 44 mM NaHCO3, 1.8 mM CaCl2, 0.8 mM MgCl2, 33 mM HEPES and 5 mM D-glucose (pH 7.4) (lines 1 and 2) or in K^+-depleted medium (equimolar substitution of KCl by NaCl, line 3) with or without 10% calf serum (CS) and 1 mM ouabain as indicated. In experiments with VSMC-MYC and VSMC-E1A, cells were preincubated for 1 hr with ouabain or with K^+-depleted medium in the presence of CS and then subjected to treatment with serum-free media. After 24 hours (VSMC) or 6 hours (VSMC-MYC and VSMC-E1A), the content of chromatin fragments was measured as described in Experimental Procedures. Mean values±S.E. obtained in 3 experiments performed in quadruplicate (VSMC) or triplicate (VSMC-MYC, VSMC-E1A) are given. ★, ★★ p<0.05 and 0.001 compared to the controls.
# To estimate chromatin cleavage, cells were incubated for 1 hr in the presence of 10% calf serum (CS) in the control solution (DMEM, [Na^+]=137 mM; [K^+]=5 mM—line 1) or under equimolar substitution of NaCl by KCl ([Na^+]=14 mM; [K^+]=128 mM—line 2) with or without 1 mM ouabain and then for an additional 6 hours in the same media with or without CS. Intracellular Na^+ and K^+ content was measured as steady-state distribution of isotopes after 24 hours preincubation of cells in control Na^+-enriched solution containing 0.5 μCi/ml ^86Rb or 2 μCilml ^22Na, and additional 6 hours incubation in Na^+—(line 1) or K^+—(line 2) enriched medium, containing 10% CS and isotopes with the same specific activity with or without 1 mM ouabain. For more details see Experimental Procedures. Mean values±S.E. obtained in 3 experiments performed in triplicate (ion content) or quadruplicate (chromatin cleavage) are given. ★p<0.001 compared to ouabain-untreated cells.
# VSMC-E1A cells were pretreated with compounds indicated in the left column during 2 hours in DMEM containing 10% calf serum and then additional 3 hours in the absence or presence of calf serum. The increment of the content of chromatin fragments triggered by serum withdrawal in control cells was taken as 100%. Means+S.E. from experiments performed with quadruplicate are given. ★p<0.001 as compared to control.
# Cells. VSMC were obtained by explant methods from aortas of 10- to 13-week-old male rats as described previously (17), cultured in DMEM with 10% calf serum, 100 U/ml penicillin, 100 µg/ml streptomycin and used between 10 to 16 passages. Cells transfected with c-myc (VSMC-MYC) and E1A-adenovirus (VSMC-E1A) were obtained in accordance with a previously-described protocol (18,19) and were cultured in the same medium with the addition of 500 µg/ml genticin. Jurkat cells were obtained from the American Type Culture Collection and cultured in RPMI 1640 medium supplied with 10% calf serum, antibiotics, sodium pyruvate, glutamate and β-mercaptoethanol.
# Chromatin cleavage assay. Chromatin cleavage in VSMC was estimated by a technique described previously in detail (10). Briefly, VSMC grown in 24-well dishes were labeled for 24 hours in serum-supplied DMEM with [^3H]-thymidine (1 μCi/ml), washed with 2×2 ml of DMEM and incubated in serum-supplied DMEM. […]
# [2] = system: caspase-3; assay: Caspase-3 activity in treated VSMC-E1A; type: cell-based, rat; conditions: 6 hours, staurosporine 0.25 μM, okadaic acid 1 μM
# Experimental: FIG. 5. Effect of ouabain on caspase-3 activity in VSMC-E1A (A) and Jurkat cells (B). VSMC-E1A and Jurkat cells were pretreated with 1 mM ouabain for 1 and 2 hours, respectively, and the additions indicated below the bars were delivered in media with 10% calf serum and with the baseline (137/5) or inverse (14/128) [Na^+]o/[K^+]o ratio for 6 (VSMC-E1A) or 3 hours (Jurkat cells). In experiments with VSMC-E1A, calf serum (CS) was omitted where indicated (−). Abbreviations: staur.—staurosporine (0.25 μM), ok.ac.—okadaic acid (1 μM), mann.—mannitol (350 mM); Fas-L—Fas ligand (100 ng/ml). Mean values±S.E. obtained in experiments performed in quadruplicate (A) or triplicate (B) are given. ★p<0.001 compared to ouabain-untreated cells.
# Caspase activity. VSMC-E1A seeded in 20 cm^2 flasks and treated as indicated in FIG. 5 were scratched, transferred to centrifuge tubes, washed twice with PBS and lysed in 0.5 ml of buffer A contaming 50 mM tris-HCl (pH 7.4), 5 mM MgCl2, 1 mM EGTA and 0.1% CHAPS. Then, 50-100 μl of cell lysate was mixed with 600 μl of buffer A containing 1 mM dithiothreitol, 40 μM YVAD-AMC or DEVD-AMC with or without 1 μM of caspase-1 and capspase-3 inhibitors (Ac-YVAD-CHO and Ac-DEVD-CHO, respectively), incubated for 2 hours at 37° C. and diluted 15-fold with 80 mM glycine-NaOH buffer (pH 10). Fluorescence of the samples was measured at ex=365 run and em=465 run and calibrated with AMC in the range of 10 to 100 nM. To measure caspase activity in control and ouabain-treated Jurkat cells, 5 ml of suspension containing ˜2×10^7 cells was transferred onto ice and sedimented. The pellet of cells was washed and treated with 0.3 ml of medium A in the same way as VSMC. Protein content was estimated by Bradford methods.
Structure (SMILES),Increment of chromatin fragments triggered by serum withdrawal(%) [1],increase of caspase-3 activity [2],"content of chromatin fragments ([1]; 6 hr, serum-supplied medium, 0.25 μM staurosporine, 1 μM okadaic acid)"
"C[C@H]1O[C@@H](O[C@H]2[C@@H](O)C[C@H](O[C@H]3[C@@H](O)C[C@H](O[C@H]4CC[C@@]5(C)[C@H](CC[C@@H]6[C@@H]5CC[C@]5(C)[C@@H](C7=CC(=O)OC7)CC[C@]65O)C4)O[C@@H]3C)O[C@@H]2C)C[C@H](O)[C@@H]1O [Digitoxin, 5β,20[22]-cardenolide-3β,14-diol-3[O-2,6-dideoxy-β-D-ribohexopyranosyl-(1->4)-2,3-dideoxy-β-D-ribohexo-pyranosyl]oxy]",24 ± 6 %,,
"C[C@H]1O[C@@H](O[C@H]2[C@@H](O)C[C@H](O[C@H]3[C@@H](O)C[C@H](O[C@H]4CC[C@@]5(C)[C@H](CC[C@@H]6[C@@H]5C[C@@H](O)[C@]5(C)[C@@H](C7=CC(=O)OC7)CC[C@]65O)C4)O[C@@H]3C)O[C@@H]2C)C[C@H](O)[C@@H]1O [Digoxin, 12β-hydroxy-digitoxin]",18 ± 4 %,,
C=C1[C@@H](O)[C@@H]2O[C@]3(CC[C@H](/C=C/[C@@H](C)[C@@H]4CC(C)=C[C@@]5(O[C@H](C[C@@](C)(O)C(=O)O)CC[C@H]5O)O4)O3)CC[C@H]2O[C@@H]1[C@@H](O)C[C@H](C)[C@H]1O[C@@]2(CCCCO2)CC[C@H]1C [okadaic acid],,10 fold,28.3±4.2%
